Laboratory results from patent US20040219112A1, “Method of whitening teeth, tooth whitening composition and tooth whitening set” (priority 2001, published 2004).

Tests used:
[1] = Whitening of extracted human tooth enclosed in absorbent cotton impregnated with liquid compound (100%), L*a*b* (CIE) whiteness; settings: compound conc. 100%; for Effect (2): prolonged effect, whiteness (Δ|L|+Δ|b|) of the tooth: measured after immersion in water (10 ml, 37° C.) for 1 hour; for Effect (1): whiteness (Δ|L|+Δ|b|) of the tooth: measured immediately after immersion in the compound for 1 hour at 37° C.; for Result (prolonged effect rating): rating of prolonged effect after 1 hour in water
Description: (§1) An experiment was conducted as follows with an extracted human tooth which had previously been examined for L*a*b* values (CIE). The tooth was enclosed in absorbent cotton impregnated with a liquid compound (in 100% concentration) shown below, and the resulting object was allowed to stand at 37° C. for 1 hour in a closed glass bottle. The tooth was examined again for L*a*b* values (CIE). The ΔL and Δb values measured before and after treatment were used to calculate the whiteness (Δ|L|+Δ|b|) of the tooth, which is a measure of the effect (1).
The tooth which had been processed as mentioned above was again allowed to stand at 37° C. for 1 hour in a closed glass bottle containing 10 ml of water at 37° C. Then, the tooth was examined again for L*a*b* values (CIE). The ΔL and Δb values measured before and after treatment were used to calculate the whiteness (Δ|L|+Δ|b|) of the tooth, which is a measure of the prolonged effect (2).

[2] = Whitening of extracted human tooth enclosed in PP non-woven sheet coated with gel of 50% whitening compound, L*a*b* (CIE) whiteness; design: key to Effect (3): whiteness (Δ|L|+Δ|b|) of the tooth / Effect (4): prolonged effect, whiteness (Δ|L|+Δ|b|) of the tooth: whiteness = Δ|L|+Δ|b| (CIE L*a*b*), change before vs after treatment; settings: gel of 50% compound; for Effect (4): prolonged effect, whiteness (Δ|L|+Δ|b|) of the tooth / Effect (3): whiteness (Δ|L|+Δ|b|) of the tooth: 0.5% jellan gum, 49.5% water; for Effect (4): prolonged effect, whiteness (Δ|L|+Δ|b|) of the tooth: measured after immersion in water (10 ml, 37° C.) for 1 hour; for Effect (3): whiteness (Δ|L|+Δ|b|) of the tooth: measured immediately after 1 hour at 37° C.; for Result (prolonged effect rating): rating of prolonged effect after 1 hour in water
Description: as §1, with “a sheet of non-woven fabric of PP coated” for “absorbent cotton impregnated”, “gel composed of 50% of the whitening” for “liquid”, “specified” for “(in 100% concentration) shown”, “below, 0.5% of jellan gum, and 49.5% of water,” for “below,”, “(3).” for “(1).”
The tooth which had been processed as mentioned above was again allowed to stand at 37° C. for 1 hour in a closed glass bottle containing 10 ml of water at 37° C. Then, the tooth was examined again for L*a*b* values (CIE). The ΔL and Δb values measured before and after treatment were used to calculate the whiteness (Δ|L|+Δ|b|) of the tooth, which is a measure of the prolonged effect (4).

Compound	Effect (2): prolonged effect, whiteness (Δ|L|+Δ|b|) of the tooth [1]	Effect (1): whiteness (Δ|L|+Δ|b|) of the tooth [1]	Result (prolonged effect rating) [1]	Effect (4): prolonged effect, whiteness (Δ|L|+Δ|b|) of the tooth [2]	Effect (3): whiteness (Δ|L|+Δ|b|) of the tooth [2]	Result (prolonged effect rating) [2]
CC(C)O [Isopropyl alcohol]	8.3	15.8	⊚ (⊚ denotes a significant prolonged effect with a value larger than 1)	0.5	1.1	◯ (◯ denotes a prolonged effect with a value larger than 0.5)
OCCOCCO [Diethylene glycol]	2.6	14.4	⊚ (⊚ denotes a significant prolonged effect with a value larger than 1)	1.1	1.3	⊚ (⊚ denotes a significant prolonged effect with a value larger than 1)
Polyethylene glycol #200 [PEG #200]	4.8	12.5	⊚ (⊚ denotes a significant prolonged effect with a value larger than 1)	0.9	0.6	◯ (◯ denotes a prolonged effect with a value larger than 0.5)
CC(O)CO (stereo not drawn) [Propylene glycol]	2.8	8.4	⊚ (⊚ denotes a significant prolonged effect with a value larger than 1)	1.0	1.0	⊚ (⊚ denotes a significant prolonged effect with a value larger than 1)
Polyethylene glycol #600 [PEG #600]	0.6	12.0	◯ (◯ denotes a prolonged effect with a value larger than 0.5)	0.8	0.7	◯ (◯ denotes a prolonged effect with a value larger than 0.5)
CC(O)CCO (stereo not drawn) [1,3-butylene glycol]	5.6	11.3	⊚ (⊚ denotes a significant prolonged effect with a value larger than 1)	0.5	0.9	◯ (◯ denotes a prolonged effect with a value larger than 0.5)
Polyethylene glycol #400 [PEG #400]	1.5	8.1	⊚ (⊚ denotes a significant prolonged effect with a value larger than 1)	0.6	0.7	◯ (◯ denotes a prolonged effect with a value larger than 0.5)
CCO [Ethanol]	3.0	12.8	⊚ (⊚ denotes a significant prolonged effect with a value larger than 1)	1.9	1.5	⊚ (⊚ denotes a significant prolonged effect with a value larger than 1)
PEG #300	3.7	10.7	⊚ (⊚ denotes a significant prolonged effect with a value larger than 1)	0.8	1.8	◯ (◯ denotes a prolonged effect with a value larger than 0.5)
OCCO [Ethylene glycol]	2.6	9.3	⊚ (⊚ denotes a significant prolonged effect with a value larger than 1)	0.7	1.6	◯ (◯ denotes a prolonged effect with a value larger than 0.5)
